These results are taken from patent US11119094B2, “Aqueous citrate-buffered metal solutions” (CD DIAGNOSTICS, INC., priority 2017, dated 2021).

The test system of one assay is lymphocytes. Nature of the assay: Lymphocyte Transformation Test for metal sensitivity (stimulation index). The assay is classed as cell-based. The note with it: SI≥4 positive. An excerpt:
The Lymphocyte Transformation Test used for Metal Sensitivity Testing measures cell proliferation relative to a negative control.

Another assay deals with mononuclear cells. Nature of the assay: Lymphocyte Transformation Test with PWM positive control in the presence of metals (toxicity). In kind it is cell-based. The note with it: metals stabilized with citrate. An excerpt: In this example, each metal tested was stabilized with citrate.

With polkweed mitogen [PWM], the “Stimulation Index” value with lymphocytes (Subject 19A, 6 Dec. 2016, assay with citrate) was determined as 108.15; in the assay on lymphocytes (Subject 19A, 15 Jul. 2016, assay without citrate), 124; in the assay with lymphocytes (Subject 21R, 3 Feb. 2017, assay with citrate) it was 75.85; in the assay with lymphocytes (Subject 21R, 19 Jul. 2016, assay without citrate), 223; in the assay with lymphocytes (Subject 20112, 11 Jan. 2017, assay with citrate), 691.43; in the assay with lymphocytes (Subject 20112, 11 Nov. 2016, assay without citrate), 669.51. Further, the “Stimulation Index” value is 119.6 with lymphocytes (Subject 71390, 4 Nov. 2016, assay without citrate) and 128.6 with lymphocytes (Subject 71390, 11 Jan. 2017, assay with citrate). Besides, the “Stimulation Index for PWM in the presence of 0.1 mM metals” value with mononuclear cells (Donor LS 23 89053D) came to 217; with mononuclear cells (Donor LS 23 89054C), 40; in the assay on mononuclear cells (Donor LS 23 89058C) it was 202; in the assay with mononuclear cells (Donor LS 23 89063E) it was 362.
